One series has as its system tumor cells. The series can be described thus: Tunnel staining of histological tumor sections (necrosis and apoptosis). Type of series: in vivo. The settings on record: tumors from halofuginone treated mice, FIG. 1F panel B. From the text:
Histological sections of the tumors were subjected to tunnel staining [Gavrieli, Y. et al., J. Cell Biol., Vol. 119, pp. 493-501, 1992], in order to evaluate the extent of tumor cell necrosis and apoptosis. […] The high degree of cell apoptosis and necrosis in halofuginone treated tumors is in all likelihood due to an inhibition of angiogenesis and […] deposition, both critical factors supporting growth and survival of the tumor cells.

The test system of series [1] is bovine corneal endothelial cells. The series is described as follows: cells. Type of series: cell-based. The procedure:
Cultures of bovine corneal endothelial cells were established from steer eyes and maintained as previously described [D. Gospodarowicz, et al., Exp. Eye Res., No. 25, pp. 75-89 (1997)]. Cells were cultured at 37° C. in 10% CO2 humidified incubators and the experiments were performed with early (3-8) cell passsages.
For preparation of the sulfate-labelled ECM (extra-cellular matrix), corneal endothelial cells were seeded into 4-well plates at a confluent density forming, within 4-6 h, a contact inhibited cell monolayer composed of closely apposed, and growth arrested cells. Under these conditions, the cells remained viable and retained their normal monolayer configuration and morphological appearance up to a concentration of 2 μg/ml halofuginone. Na2[^35S]O4 (540-590 mCi/mmol) was added (40 μCi/ml) one and five days after seeding and the cultures were incubated without medium change. At various intervals after seeding, the subendothelial ECM was exposed by dissolving (5 min., room temperature) the cell layer with PBS containing 0.5% Triton X-100 and 20 mM NH4OH, followed by four washes in PBS [I Viodavsky, et al., Cancer Res., Vol. 43, pp. 2704-2711 (1983), I. Vlodavsky, et al., Proc. Natl. Acad. Sci. USA, Vol. 84 pp. 2292-2296 (1987)]. To determine the total amount of sulfate labeled material, the BCM was digested with trypsin (25 μg/ml, 24 h, 37° C.) and the solubilized material counted in a β-counter.

Another series has as its system collagen type I. As to conditions: in vitro; cited from earlier work.
Series [2] has as its system bovine aortic endothelial cells. The series is described as follows: Organization of endothelial cells into capillary-like networks in type I collagen gel. Type of series: cell-based. The settings on record: 0.1 μg/ml Halofuginone; bFGF 1 ng/ml and heparin 1 μg/ml. The procedure:
Type I collagen was prepared from the tail tendons of adult Sprague Dawley rats. Briefly, the collagen fibers were solubilized by a slow stirring for 48 h at 4° C. in a sterile, 1/1000 (w/v) acetic acid solution (300 ml for 1 g of collagen). The resulting solution was filtered through a sterile triple gauze and centrifuged at 16,000 g for 1 h at 4° C. The supernatant was then extensively dialyzed against 1/10. DMEM and stored at 4° C. The collagen matrix gel was obtained by simultaneously raising the pH and ionic strength of the collagen solution. For this purpose, 7 vol of collagen solution were quickly mixed with 1 vol of 10X Minimum Essential Medium and 2 vol sodium bicarbonate (0.15 M) [R. F. Nicosa and A. Ottinetti, Lab. Invest, Vol. 63, pp. 115-122 (1990)]. Bovine aortic endothelial cells were seeded into 16 mm wells of a 24-well plate and allowed to grow for 24 h, to obtain a subconfluent monolayer. The culture medium was then removed and 0.4 ml of the cold collagen mixture described above were poured on top of the cell monolayer and allowed to polymerize for 10 min at 37° C. […] The reorganization of the endothelial cell monolayer was monitored and photographed with a Zeiss inverted phase contrast photomicroscope [K. Monesano, et al., J. Cell Biol., Vol. 97, pp. 1648-1652 (1983)].

For series [3], the system named is bovine corneal endothelial cells. The series is described as follows: Incorporation of sulfate, proline, lysine and glycine into ECM (CDP and NCDP). The format is cell-based. As to conditions: eight days after seeding. The procedure:
Corneal endothelial cells were seeded at a confluent density and grown as described in Example 5 above. The cells were cultured with or without Halofuginone in the presence of either Na2^35SO4 (FIG. 8A), ^3H-proline (FIG. 8B), ^14C-lysine (FIG. 8C) or ^14C-glycine (FIG. […]). Eight days after seeding, the cell layer was dissolved substantially as described in Example 5 above. The underlying ECM was then either trypsinized to determine the effect of Halofuginone on incorporation of labelled material into total protein, substantially as described in Example 5 above, or subjected to sequential digestions with collagenase and trypsin to evaluate the effect of Halofuginone on both collagenase-digestible proteins (CDP) and non-collagenase digestible proteins (NCDP).

A further series has as its system rat mesengial cells. The series can be described thus: Sulfate and glycine incorporation into rat mesengial cell ECM. The format is cell-based. As to conditions: for inhibition at 0.05 µg/mL: 50 ng/ml Halofuginone; for inhibition at 0.2 µg/mL: 200 ng/ml Halofuginone. As for the experimental part: Rat […] grown to confluency, 24 hours after seeding. The cells were then cultured with or without Halofuginone in the presence of either Na2^35SO4 (FIGS. 9A and 9B) or ^14C-glycine (FIGS. 9C and 9D). Eight days after sending, the cell layer was dissolved to expose the underlying ECM, washed and digested with collagenase to determine the effect of Halofuginone on CDP proteins, as shown in FIGS. 9A and 9C. The remaining material was digested with trypsin and subjected to β-scintillation counting to determine the effect of halofuginone on NCDP proteins, as shown in FIGS. 9B and 9D.

The test system of series [4] is bovine aortic endothelial cells. The series is described as follows: 3H-thymidine incorporation into vascular endothelial cells. The format is cell-based. The settings on record: 48 hours. As for the experimental part:
Cultures of vascular endothelial cells were established from bovine aorta as previously described [D. Gospodarowicz, et al., Proc. Natl. Acad. Sci. U.S.A., Vol. 73, p. 4120 (1979)]. Bovine aortic endothelial cells were plated (4×10^4 cells/16 mm well) in DMEM (1 g glucose/liter) supplemental with 10% calf serum, 50 U/ml penicillin, and 50 μ/ml streptomycin at 37° C. in 10% CO2 humidified incubators. Four days after plating, the subconfluent cells were exposed to increasing concentrations of Halofuginone (100-500 ng/ml), in the absence of presence of 1 ng/ml bFGF. ^3H-thymidine (1 μCi/well) was then added for an additional 48 hours, and DNA synthesis was assayed by measuring the radioactivity incorporated into trichloroacetic acid insoluble material [M. Benezra, et al., Cancer Res., Vol 52, pp. 5656-5662 (1992); I. Vlodavsky, et al., Proc. Natl. Acad. Sci. U.S.A. Vol. 84, pp. 2292-2296 (1987)].
In general terms: Incorporation of labelled thymidine or its analogues reports DNA synthesis.

Converted amounts (≈) assume the structure as drawn. Where two headings read alike, the source gives them in different places.

As for `O=C(CC1NCCCC1O)Cn1cnc2cc(Br)c(Cl)cc2c1=O` (stereo not shown) [Halofuginone], the “tunnel staining of tumor sections (cell apoptosis and necrosis)” value in the series with tumor cells is on record as “majority of cells in tumor sections derived from halofuginone treated mice exhibited an intense staining”. In addition, the “inhibition of sulfate incorporation into ECM” value in series [1] (1 μg/ml Halofuginone) is recorded as “almost complete inhibition”. Further, the IC50 was 0.2 µg/mL (≈ 0.482 µM) in series [1] (Bos taurus, Endothelial cell, read-out: concentration giving 50% inhibition of sulfate incorporation into ECM) and 0.1 µg/mL (≈ 0.241 µM) in series [4] (Bos taurus, Endothelial cell, absence of bFGF (FIG. 2A), read-out: concentration giving 50% inhibition of 3H-thymidine incorporation). Besides, the “concentration up to which cells remained viable with normal monolayer configuration and morphology” value in series [1] (bovine) is at most 2 μg/ml. Besides, in the series on collagen type I, the “synthesis of collagen type I in bone chondrocytes” value is recorded as “inhibits the synthesis of collagen type I”. In addition, the “invasion of endothelial cells into collagen gel and organization into capillary-like tubes” value in series [2] is “completely inhibited”. Also, the “incorporation of sulfate, proline, lysine and glycine into both CDP and NCDP” value in series [3] is recorded as “inhibited”. The inhibition at 0.05 µg/mL is about 80% in the series with rat mesengial cells (read-out: inhibition of glycine incorporation, CDP proteins) and about 80% in the series with rat mesengial cells (read-out: inhibition of glycine incorporation, NCDP proteins). Moreover, the inhibition at 0.2 µg/mL with rat mesengial cells (read-out: inhibition of sulfate incorporation, CDP proteins) was about 30%; in the series on rat mesengial cells (read-out: inhibition of sulfate incorporation, NCDP proteins) it was about 70%. The “concentration giving 50% inhibition of 3H-thymidine incorporation” value in series [4] (presence of 1 ng/ml bFGF (FIG. 2B)) worked out at 100 ng/mL.

Source of the values: patent US6420371B1, “Quinazolinone-containing pharmaceutical compositions for prevention of neovascularization and for treating malignancies” (Madasit Medical Research Services & Development Co., Ltd., priority 1997, dated 2002).
